Format in all cases: physicochemical
Data set [1] can be described thus: Powder x-ray diffraction of ALDSI stored with a metal salt (croscarmellose Na). To be noted: 3 days storage with croscarmellose Na, 60° C./75% RH. The protocol: FIG. 1: Powder x-ray diffraction peaks detected from MLS-101 after 3 days of storage with a metal salt (croscarmellose Na) (storage conditions: 60° C./75% RH).
ALDSI-derived peaks were detected after 3 days of storage of ALDSI with a metal salt (croscarmellose Na). (storage conditions: 60° C./75% RH)

Data set [2] in a line: Stability test of 10% API capsules: purity test (related substances). The following applies: Initial. On the procedure:
Metal salt-free excipients were selected.
D-Mannitol and talc were mixed and sieved. The API was added to the sieved mixture, blended, sieved, and filled in HPMC capsules.

The nature of data set [3]: Dissolution test of ALDSI (JP Paddle Method, JP Second Fluid) and XRPD after storage or processing of API alone. On the procedure:
Storage conditions: 25° C./60% RH, 40° C./75% RH, and 60° C./75% RH (relative humidity) in an open container
Sampling time points: 3 days and 1 week
Test method: JP Apparatus for Paddle Method (Apparatus 2)
Revolutions: 50 rpm for 0-30 min, and 250 rpm for 30 min.
Dissolution medium: JP Second Fluid for dissolution test (A mixture of phosphate buffer solution (pH 6.8) and water (1:1), as described in the Japanese Pharmacopoeia.)

Data set [4] in a line: Study II of tablets: purity test (related substances) after storage. The following applies: Initial. From the text:
API granules, a disintegrant, and lubricants were mixed in a polyethylene bag. After confirming pressure dependency, the mixture was subjected to sequential tableting (900 kilogram of force, i.e. about 8826 Newtons).

A short description of data set [5]: Water solubility of API free base.

For `CC(=O)N[C@H]1CC[C@H](NC(=O)CN2CCN(c3nncc(-c4ccc(C)cc4)n3)CC2)CC1` [ALDSI], the “Propensity toward disproportionation in the presence of a metal salt” value in data set [1] is “high propensity toward disproportionation”. Also, in data set [2], the “Individual related substances RRT 0.95” value is 0.10%, the “Individual related substances RRT 0.96” value was found to be 0.04%, the “Individual related substances RRT 0.98” value is reported as 0.11% and the “Individual related substances RRT 1.18” value was determined as 0.47%. For the same molecule, in data set [2], the “Individual related substances RRT 1.19” value was 0.03% and the Total related substances stood at 0.75%. Further, in data set [3] (API alone compressed at 300, 600, and 900 kilograms of force), the “Dissolution differences among samples” value is reported as “no differences in dissolution among samples”. The “Dissolution differences among samples” value in data set [3] (API alone ground for 1, 3, 20, and 30 min) is “no differences in dissolution among samples”. Moreover, in data set [3] (API alone kneaded with large, middle, and small amounts of water), the “Dissolution differences among samples” value is listed as “no differences in dissolution among samples”. Besides, in data set [3] (API alone, 25° C./60% RH, 40° C./75% RH, 60° C./75% RH open container, 3 days and 1 week), the “Dissolution delay / new XRPD peaks after storage” value was “no delay of dissolution or appearance of new peaks on XRPD”. Further, the “Dissolution changes over time” value in data set [3] (compressed API alone stored at 60° C./75% RH for 3 days or 1 week) is reported as “no changes in dissolution over time”. Further, the “Dissolution changes over time” value in data set [3] (ground API alone stored at 60° C./75% RH for 3 days or 1 week) was “no changes in dissolution over time”. In addition, in data set [4], the “Individual related substances RRT 0.81” value is recorded as 0.11%, the “Individual related substances RRT 0.85” value was found to be 0.02%, the “Individual related substances RRT 1.09” value is on record as 0.02% and the “Individual related substances RRT 1.13” value is 0.02%. Further, in data set [4], the “Individual related substances RRT 1.35” value turned out to be 0.02%, the “Individual related substances RRT 1.43” value came to 0.02%, the “Individual related substances RRT 1.69” value is reported as 0.02% and the Total related substances is recorded as 0.23%.
As for `CC(=O)N[C@H]1CC[C@H](NC(=O)CN2CCN(c3nncc(-c4ccc(C)cc4)n3)CC2)CC1` [API free base], the Solubility in water result in data set [5] was “poorly soluble in water”.

Source of the values: US20240366616A1, “SOLUBLE PHARMACEUTICAL COMPOSITIONS COMPRISING SALTS OF DISUBSTITUTED 1, 2, 4-TRIAZINE COMPOUND” (Mineralys Therapeutics, Inc., priority 2021, published 2024).
